Reference: patent publication US9133199B2, “Pyrimidine derivatives as protein kinase inhibitors” (Cyclacel Limited, priority 2007, dated 2015)

Experiments:
AA (aurora kinase A) = AA (aurora kinase A) (Homo sapiens (Human), UniProt O14965); test: AA kinase inhibition (Table 1); format: biochemical; details: Table 2; read-out: AurA IC50
[1] = Pharmacokinetics in fasted conscious CD-1 mice (iv and oral); format: in vivo; details: compared to compounds A-G
Method: Preliminary investigations of the pharmacokinetics of selected compounds were carried out in fasted conscious CD-1 mice (25-30 g). Compounds were dosed as 1 mg/kg by intravenous administration or 5-10 mg/kg by oral route. Twenty one male mice per administration route (n=3 mice per time point) received dose solution by single bolus injection in the tail vein or by oral gavage. Blood samples were collected by cardiac puncture at 5, 15, 30, 60, 120, 240 and 360 min following iv administration and at 30, 60, 120, 240, 360, 480 and 1440 min following oral administration. Blood samples were collected into tubes containing the anti-coagulant lithium heparin, mixed and placed promptly on crushed ice. Plasma was derived from whole blood by centrifugation, frozen and stored at −80° C. prior to analysis. Plasma concentrations were determined by liquid chromatography-tandem mass spectrometry in electrospray positive mode (ESI LC/MS/MS) using calibration curves prepared in the appropriate matrix. The lower level of quantification (LLOQ) in all cases was ca. 5 ng/mL. Plasma concentration-time data was processed using the computer program WinNonLin version 5.2 from which areas under the plasma concentration-time curve (AUCall) were calculated by non-compartmental analysis using Model 201 (IV-bolus Input) or Model 200 (Extravascular Input).
FIG. 1 plots the area under the curve (AUC) for plasma concentration vs time for each compound tested. The dosing vehicle across these experiments remained constant (intravenous=citrate buffer pH 3, 1 mL/kg; oral=DMA/PEG400/10 mM Tartrate buffer, pH 4 (1:3:6), 5 ml/kg). FIG. 2 represents the same data in the form of oral bioavailability (% F) for each compound.

A2780/ADR cells = test: Cell viability assay (Alamar Blue, 72 hours), MDR line; format: cell-based, human; details: paired parental and MDR tumour cell lines (A2780-A2780/ADR, MES-SA-MES-SA/Dx5)
Excerpt: In vitro cell viability assays have been used to measure the effect of drug accumulation in paired parental and drug resistant tumour cell lines. The pairs used are the human ovarian carcinoma A2780 line with its MDR counterpart A2780/ADR and the human uterine sarcoma MES-SA line with its MDR counterpart MES-SA/Dx5 [Wesolowska O., et al. (2005) Anticancer Res., 25, 383-389].
Method: Cultivated human tumour cells of the ovarian cell line A2780 and its doxorubicin-resistant pair, A2780/ADR and the uterine cell line MES-SA and its doxorubicin-resistant pair, MES-SA/DX5 were seeded at 3000 cells per well in Nunc 96-well tissue culture plates, 100 μl per well in DMEM media containing 10% foetal calf serum and penicillin/streptomycin. […] The plates were then read at 544/595 nm.
The amount of Alamar Blue reagent reacted represents the metabolic activity of the cells. […] The values were calculated from the average of three individual measurements with blank correction (medium-only control).
The assay was performed on the Biomek FxP, automation platform from Beckman Coulter. The plates were read on the Paradigm plate reader supplied by Beckman Coulter. Asymmetry ratios were calculated as the IC50 value of the compound in the drug resistant cells divided by the IC50 value in the parental cells. […]

AA (aurora kinase A), sequence (O14965 whole entry, species assumed): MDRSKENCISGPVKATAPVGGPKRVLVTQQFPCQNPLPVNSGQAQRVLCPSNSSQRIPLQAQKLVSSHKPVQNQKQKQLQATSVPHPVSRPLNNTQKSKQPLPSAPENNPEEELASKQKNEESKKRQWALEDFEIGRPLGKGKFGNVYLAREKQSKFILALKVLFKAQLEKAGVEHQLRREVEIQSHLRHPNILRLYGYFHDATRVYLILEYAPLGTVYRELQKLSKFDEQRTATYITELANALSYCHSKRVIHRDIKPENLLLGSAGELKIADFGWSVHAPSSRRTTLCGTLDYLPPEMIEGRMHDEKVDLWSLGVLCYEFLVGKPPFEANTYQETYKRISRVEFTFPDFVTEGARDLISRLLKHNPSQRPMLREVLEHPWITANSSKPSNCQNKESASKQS

| SMILES | IC50 (AA (aurora kinase A)) [µM] | oral bioavailability (% F) [1] | systemic exposure (AUC of plasma concentration vs time) ([1]; iv 1 mg/kg and oral 5-10 mg/kg) | cellular efflux (MDR/parental cell asymmetry) (A2780/ADR cells) |
| --- | --- | --- | --- | --- |
| CN1C(=O)CCN(C2CCCC2)c2nc(Nc3cccc4cc[nH]c34)ncc21 [Compound 98, 9-Cyclopentyl-2-(1H-indol-7-ylamino)-5-methyl-5,7,8,9-tetra-hydro-pyrimido[4,5-b] [1,4]diazepin-6-one] | < 1 |  |  |  |
| CN1C(=O)CCN2CCC(=O)Nc3cccc(c3)Nc3ncc1c2n3 [Compound 282] | < 10 |  |  |  |
| COc1cc(C(=O)N[C@H]2CC[C@H](N3CCN(CC4CC4)CC3)CC2)ccc1Nc1ncc2c(n1)N(C1CCCC1)CC1(CC1)C(=O)N2C [Compound 371, 4-(9′-cyclopentyl-5′-methyl-6′-oxo-5′,6′,8′,9′-tetrahydrospiro[cyclopropane-1,7′-pyrimido[4,5-b][1,4]diazepine]-2′-ylamino)-N-((trans)-4-(4-(cyclopropylmethyl)piperazin-1-yl)cyclohexyl)-3-methoxybenzamide] |  | markedly superior | markedly superior | low cellular efflux |
